pIC50: −log10 of the molar value.
How the values were obtained:
[1] = system: ACTA2-promoter-driven-luciferase in NIH3T3 cells; assay: NIH3T3 Acta2-promoter driven-luciferase assay; format: cell-based; details: Mus musculus, plus TGFβ1, 24 hr, read-out: NIH3T3, Acta2-luc, IC50
Outline: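 Stable NIH3T3 line carrying luciferase reporter under human ACTA2 promoter (−1000-1 bp); confluent cells given 9-point compound dilutions with TGFβ1 for 24 hr. Lysed cells read for luciferase; IC50 from nonlinear regression fit.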

[2] = system: human oligodendrocyte/neuron progenitor cells; assay: Chondroitin Sulfate Proteoglycan (CSPG) assay on human oligodendrocyte/neuron progenitors; format: cell-based; details: 1 μM and 3 μM, 72 hour
Method: Chondroitin Sulfate Proteoglycan (CSPG) assay on human oligodendrocyte/neuron progenitors in 96-well plate. […] Cells were seeded on the coated plates at a density of 6,000 cells per well in expansion media. The following day the expansion media was replaced with fresh spontaneous differentiation media containing testing compounds. Cells were imaged and neurite length was analyzed by IncuCyte S3 Live Cell Analysis System every 4 hours.

[3] = system: human oligodendrocyte/neuron progenitor cells; assay: Neurite outgrowth and differentiation of human oligodendrocyte/neuron progenitors; format: cell-based
Method: Thawing and proliferation of human oligodendrocyte/neuron progenitor cells (OPCs). Cryopreserved human oligodendrocyte/neuron progenitors (Millipore Cat. No. CS204496) were recovered and cultured on maltrigel (BD Cat. No. 356324) coated T-25 flask in expansion media containing OPC/neuron basal medium, N21 medium supplement, recombinant human bFGF, PDGF-AA and NT-3. When cells reached 80% confluent, 3 ml of Accutase was applied (Millipore SCR005) to passage cells at 1:4 ratio. Sub-cultured cells were maintained in expansion media for proliferation.
Spontaneous differentiation of human oligodendrocyte/neuron progenitors in 24-well and 96-well plates. Coat plate with 10 μg/ml poly-L-ornithine (Sigma Cat. No. P4957) overnight at room temperature. Remove the poly-L-ornithine solution and rinse the plate with 1×PBS, add 10 μg/ml laminin (Millipore Cat. No. CC095) and incubate at 37° C. for at least 2 hours. Seed cells on the coated plates in expansion media and allowed to attach overnight. The next day expansion media was removed and replaced with freshly prepared spontaneous differentiation media only containing OPC/neuron basal media and N21 media supplement. For 14 day culture, differentiation media was replaced every 3-4 days. Cells were imaged and neurite length was analyzed by IncuCyte S3 Live Cell Analysis System every 4 hours. After 14 days of differentiation, cells were fixed by 4% paraformaldehyde and stained with DAPI and Neuron-specific ß-III tubulin antibody (R&D systems, NL1195R).

[4] = system: human oligodendrocyte/neuron progenitor cells; assay: Aβ 1-42 induced cell death assay on human oligodendrocyte/neuron progenitors; format: cell-based; details: 3 μM, 10.5 μM Aβ1-42, 24 hour
Method: Aβ 1-42 induced cell death assay on human oligodendrocyte/neuron progenitors in 96-well plate. Cells were seeded on poly-L-ornithine and laminin coated plates at a density of 8,000 cells per well and maintained in expansion media until Day 3, then media was replaced with fresh spontaneous differentiation media containing testing compounds and IncuCyte Annexin V Red Reagent (1:200 dilution) (Essen BioScience Cat. No. 4641). After the pre-incubation period of 30 minutes at 37° C., 10.5 μM Aβ 1-42 (Bachem Product No. H-8146) was added directly in the pretreatment solution. Neurite length and total Annexin V positive area were analyzed by IncuCyte S3 Live Cell Analysis System every 2 hours.
In addition to promoting neuroregeneration, ROCK inhibitors have been reported to exert neuroprotective effects and prolong neuronal survival. Here we test the neuroprotective effect of ROCK inhibitors against Aβ1-42. Human oligodendrocyte/neuron progenitor cells were pre-incubated with ROCK inhibitors for 30 minutes before exposing to 10.5 μM Aβ1-42. IncuCyte Annexin V Red Reagent was added to culture media to label cell apoptosis. Pictures were taken by IncuCyte S3 and total Annexin V positive area was analyzed by IncuCyte S3 base software. Neurite length was quantified by IncuCyte NeuroTrack Software Module, see FIGS. 3b and 3c.

[5] = system: ppMlc (T18/S19) levels in A7R5 cells; assay: A7R5 in-cell ELISA assay (ppMlc); format: cell-based, rat; details: Rattus norvegicus, A7R5, A7R5 cells, Table 2; read-out: pMLC IC50 (nM) A7R5
Outline: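 Rat aortic smooth muscle A7R5 cells in DMEM with 10% FBS, seeded 24 h, then treated 90 min with 9-point 2-fold compound dilutions. ppMlc (T18/S19) measured by colorimetric in-cell ELISA; cellular IC50 from nonlinear regression curve fit.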

[6] = molecular target: recombinant ROCK2 (amino acids 1-552) (Homo sapiens (Human), UniProt O75116); assay: Z'-lyte kinase assay, ROCK2; format: biochemical; details: for inhibition at 0.5 µM: read-out: ROCK2 % inh (0.5 μM)
Outline: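 Inhibition of recombinant human ROCK2 (residues 1-552, sourced from ThermoFisher Scientific) was assessed in vitro with the Z'-lyte kinase kit. Kinase activity with compound was normalized to DMSO control to give percent inhibition. IC50s came from 9-point 2-fold serial dilutions fitted by nonlinear regression in GraphPad Prism.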

[7] = molecular target: recombinant ROCK1 (amino acids 1-535) (Homo sapiens (Human), UniProt Q13464); assay: Z'-lyte kinase assay, ROCK1; format: biochemical; details: for inhibition at 0.5 µM: read-out: ROCK1 % inh (0.5 μM)
Method: Determination of compounds ROCK inhibitory activity in vitro (Z'lyte assay): recombinant ROCK1 (amino acids 1-535) and ROCK2 (amino acids 1-552) proteins were purchased from ThermoFisher Scientific. Compounds activities were measured by Z'-lyte kinase kit (ThermoFisher Scientific) and IC50s were calculated.
Compounds activities were measured by Z'-lyte kinase kit (ThermoFisher Scientific). […] IC50s were calculated using the GraphPad Prism software with kinase activities data that were collected from 9 points serial dilution of compounds treatment. The ROCK inhibition in A7R5 cells and NIH3T3 (Acta2-Luc) cells was performed as described above.
The percent inhibition rate was calculated by normalizing the kinase activity value obtained with compound treatment against DMSO control value and then applied to the equation, […]. IC50's were calculated using the nonlinear regression curve fit function of the GraphPad Prism software with kinase activities data measured with 9 points 2-fold serial dilution of compounds treatment.

sAPPβ = details: direct injection into hippocampus; cited from earlier work
[8] = cited from earlier work

Chain of recombinant ROCK1 (amino acids 1-535) (Q13464 1-535): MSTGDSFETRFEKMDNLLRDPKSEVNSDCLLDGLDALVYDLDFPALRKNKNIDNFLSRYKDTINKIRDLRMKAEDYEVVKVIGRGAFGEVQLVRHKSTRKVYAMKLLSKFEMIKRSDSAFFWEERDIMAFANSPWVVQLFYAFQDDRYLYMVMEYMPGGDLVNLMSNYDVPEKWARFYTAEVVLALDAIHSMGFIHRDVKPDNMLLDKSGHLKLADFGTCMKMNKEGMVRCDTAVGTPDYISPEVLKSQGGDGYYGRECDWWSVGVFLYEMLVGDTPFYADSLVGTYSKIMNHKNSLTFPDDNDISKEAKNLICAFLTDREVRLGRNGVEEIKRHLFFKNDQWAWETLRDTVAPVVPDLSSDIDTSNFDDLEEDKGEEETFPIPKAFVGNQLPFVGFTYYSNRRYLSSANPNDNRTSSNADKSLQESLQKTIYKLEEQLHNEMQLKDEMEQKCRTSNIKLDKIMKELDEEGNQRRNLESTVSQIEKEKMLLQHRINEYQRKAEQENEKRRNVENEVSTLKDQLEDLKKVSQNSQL
Chain of recombinant ROCK2 (amino acids 1-552) (O75116 1-552): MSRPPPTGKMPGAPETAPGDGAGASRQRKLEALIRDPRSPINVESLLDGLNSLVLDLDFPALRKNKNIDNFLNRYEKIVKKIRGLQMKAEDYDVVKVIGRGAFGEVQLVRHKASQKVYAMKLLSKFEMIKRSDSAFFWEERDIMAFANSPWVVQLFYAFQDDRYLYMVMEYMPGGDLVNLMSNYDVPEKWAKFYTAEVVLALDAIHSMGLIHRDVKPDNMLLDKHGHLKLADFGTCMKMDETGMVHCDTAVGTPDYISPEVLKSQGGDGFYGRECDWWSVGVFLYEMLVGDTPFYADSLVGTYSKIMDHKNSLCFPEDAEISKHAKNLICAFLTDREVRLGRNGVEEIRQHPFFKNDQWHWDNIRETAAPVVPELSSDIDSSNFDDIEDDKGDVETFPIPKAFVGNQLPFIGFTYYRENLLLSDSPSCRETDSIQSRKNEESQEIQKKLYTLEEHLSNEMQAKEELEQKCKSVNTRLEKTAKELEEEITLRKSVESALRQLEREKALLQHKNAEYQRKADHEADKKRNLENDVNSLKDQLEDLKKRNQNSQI

Row | IC50 [5] | pIC50 [6] | inhibition at 0.5 µM [6] | pIC50 [7] | SMILES | pIC50 [1] | further results
1 | 60 nM | 8.20 | 98% | – | CNC(C(=O)Nc1ccc(-c2cn[nH]c2)cc1)c1ccc(Cl)cc1 (stereo not drawn) [Example 17, N-(4-(1H-pyrazol-4-yl)phenyl)-2-(4-chlorophenyl)-2-(methylamino)acetamide] | 6.97 | CSPG mediated neurite outgrowth arrest [2]: significantly counteract; neuronal differentiation and maturation ([3]; 14 days culture, Beta III tubulin): facility neuronal differentiation and maturation; neurite length ([3]; various concentrations, 3 days culture): significantly increase neurite length; Aβ1-42 induced cell death (Annexin V area) [4]: significantly protect; neurite outgrowth in the presence of Aβ1-42 [4]: promoted neurite outgrowth; inhibition at 0.5 µM [7]: 99%
2 | 263 nM | 8.77 | 94% | – | CNC(C(=O)Nc1ccc(-c2cn[nH]c2)cc1)c1cccc(Cl)c1 (stereo not drawn) [Example 20, N-(4-(1H-pyrazol-4-yl)phenyl)-2-(3-chlorophenyl)-2-(methylamino)acetamide] | 6.80 | inhibition at 0.5 µM [7]: 98%
3 | 334 nM | 7.66 | 97% | 7.06 | CNC(C(=O)Nc1ccc(-c2cn[nH]c2)cc1)c1cccc(OC(F)F)c1 (stereo not drawn) [Example 24, N-(4-(1H-pyrazol-4-yl)phenyl)-2-(3-(difluoromethoxy)phenyl)-2-(methylamino)acetamide] | 5.77 | –
4 | 58 nM | 8.74 | – | 8.52 | CNCCN[C@@H](C(=O)Nc1ccc(-c2cn[nH]c2)cc1)c1cccc(OC)c1 [Example 62, (R)—N-(4-(1H-pyrazol-4-yl)phenyl)-2-(3-methoxyphenyl)-2-((2-(methylamino)ethyl)amino)acetamide] | 6.97 | –
5 | – | – | – | – | CN(C)CCOc1cc(-c2cn[nH]c2)ccc1NC(=O)C1COc2ccccc2O1 (stereo not drawn) [SR3677] | – | sAPPβ (sAPPβ): lowering sAPPβ; brain penetration ([8]; in vivo): lack of brain penetration; half-life ([8]; oral PK): < 1 h; oral bioavailability (F) ([8]; oral): 5%
6 | 548 nM | 7.66 | – | 7.09 | CNCCN[C@H](C(=O)Nc1ccc(-c2cn[nH]c2)cc1)c1cccc(OC)c1 [Example 63, (S)—N-(4-(1H-pyrazol-4-yl)phenyl)-2-(3-methoxyphenyl)-2-((2-(methylamino)ethyl)amino)acetamide] | 6.20 | –
7 | 35 nM | 8.54 | – | 8.11 | COc1cccc([C@@H](NCCN(C)C)C(=O)Nc2ccc(-c3cn[nH]c3)cc2)c1 [Example 61, (R)—N-(4-(1H-pyrazol-4-yl)phenyl)-2-((2-(dimethylamino)ethyl)amino)-2-(3-methoxyphenyl)acetamide] | 7.32 | –

From patent publication US11479533B2, “Inhibitors of Rho associated coiled-coil containing protein kinase” (KADMON CORPORATION, LLC, priority 2017, dated 2022)
